Assay [1] relates to E. coli WT DSM-1116. Put plainly: MIC determination. Type of assay: cell-based. As to conditions: Escherichia coli, DSM1116, read-out: MIC E. coli WT, DSM-1116.
Assay [2] relates to S. aureus ATCC29213. Nature of the assay: MIC determination. The class given is cell-based. The conditions noted are these: Staphylococcus aureus, ATCC29213, read-out: MIC S. aureus, ATCC29213.
Assay [3] addresses E. coli gyrase (Escherichia coli, UniProt P0AES4). Nature of the assay: DNA gyrase supercoiling assay, method b. The class given is biochemical.
Assay [4] has as its system E. coli WT-3. Nature of the assay: MIC determination, larger panel. Type of assay: cell-based. As to conditions: Escherichia coli, WT3, read-out: MIC E. coli WT-3.
Assay [5] deals with A. baumannii DSM-30008. Put plainly: MIC determination, larger panel. Type of assay: cell-based. The conditions noted are these: Acinetobacter baumannii, DSM30008, read-out: MIC A. baumannii, DSM-30008.
Assay [6] has as its system E. coli ΔtolC. Put plainly: MIC determination. The class given is cell-based. The conditions noted are these: Escherichia coli, read-out: MIC E. coli ΔtolC.
For assay [7], the system named is P. aeruginosa ΔmexAB (PA14ΔmexAB). Put plainly: MIC determination. Type of assay: cell-based. As to conditions: Pseudomonas aeruginosa, read-out: MIC P. aeruginosa ΔmexAB.
In assay [8] the test system is P. aeruginosa WT PA14. Nature of the assay: MIC determination. The class given is cell-based, Pseudomonas aeruginosa. The conditions noted are these: Pseudomonas aeruginosa, PA14, read-out: MIC P. aeruginosa WT, PA14.

In brackets after ≈: the same amount, converted by molar mass.

Sequence of E. coli gyrase (P0AES4 whole entry): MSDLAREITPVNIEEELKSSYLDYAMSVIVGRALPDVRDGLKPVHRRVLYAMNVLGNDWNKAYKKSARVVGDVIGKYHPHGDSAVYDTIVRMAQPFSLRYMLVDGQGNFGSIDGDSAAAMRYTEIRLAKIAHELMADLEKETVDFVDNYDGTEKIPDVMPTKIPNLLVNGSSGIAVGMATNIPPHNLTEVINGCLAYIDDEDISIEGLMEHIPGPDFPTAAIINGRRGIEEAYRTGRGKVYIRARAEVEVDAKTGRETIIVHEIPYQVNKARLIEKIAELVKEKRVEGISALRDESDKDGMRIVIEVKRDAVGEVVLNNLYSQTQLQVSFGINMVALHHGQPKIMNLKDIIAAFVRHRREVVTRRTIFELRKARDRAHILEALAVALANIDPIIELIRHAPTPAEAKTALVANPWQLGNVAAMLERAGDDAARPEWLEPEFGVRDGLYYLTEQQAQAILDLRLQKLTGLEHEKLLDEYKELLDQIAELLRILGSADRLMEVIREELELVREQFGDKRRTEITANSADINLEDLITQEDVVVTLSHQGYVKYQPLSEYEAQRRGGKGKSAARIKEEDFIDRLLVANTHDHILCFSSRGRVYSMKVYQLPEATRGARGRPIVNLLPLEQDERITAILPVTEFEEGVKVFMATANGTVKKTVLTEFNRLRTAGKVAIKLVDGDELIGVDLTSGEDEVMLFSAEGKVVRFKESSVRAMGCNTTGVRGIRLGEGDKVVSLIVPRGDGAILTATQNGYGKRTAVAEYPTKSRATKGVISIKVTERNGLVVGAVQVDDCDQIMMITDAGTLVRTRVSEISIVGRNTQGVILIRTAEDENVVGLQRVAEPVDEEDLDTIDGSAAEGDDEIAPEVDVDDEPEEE

Take `CC(C)Oc1c(NC(=O)c2ccc(NC(=O)[C@H](CC(N)=O)NC(=O)c3ccc(NC(=O)c4ccccc4)cc3)cc2)ccc(C(=O)Nc2ccc(C(=O)O)cc2)c1O` [Compound 15]: the MIC in assay [1] is above 64 µg/mL.

With `CC(C)Oc1c(NC(=O)c2ccc(NC(=O)[C@H](CC(N)=O)NC(=O)c3ccc(NC(=O)c4ccc(C(F)(F)F)cc4)cc3)cc2)ccc(C(=O)Nc2ccc(C(=O)O)cc2)c1O` [Compound 23], the MIC in assay [2] fell in the range of 16 to 32 µg/mL (≈ 18.7 to 37.4 µM).

With `CC(C)Oc1c(NC(=O)c2ccc(NC(=O)[C@H](CC(N)=O)NC(=O)c3ccc(NC(=O)c4ccc(NC(=O)c5ccc([N+](=O)[O-])cc5)cc4)cc3)cc2)ccc(C(=O)Nc2ccc(C(=O)O)cc2)c1O` [Compound 24], the “fold reduced inhibitory activity in the gyrase assay” value in assay [3] (compared to 4) is on record as 20 fold.

Consider `CC(C)Oc1c(NC(=O)c2ccc(NC(=O)[C@H](CC(N)=O)NC(=O)c3ccc(NC(=O)c4ccc(C#N)cn4)cc3)cc2)ccc(C(=O)Nc2ccc(C(=O)O)cc2)c1O` [Compound 31], for which the minimal inhibitory concentration (MIC) in assay [4] turned out to be 2 µg/mL (≈ 2.46 µM).

For `C/C(=C\c1ccc(C#N)cc1)C(=O)Nc1ccc(C(=O)N[C@@H](CC(N)=O)C(=O)Nc2ccc(C(=O)Nc3ccc(C(=O)Nc4ccc(C(=O)O)cc4)c(O)c3OC(C)C)cc2)cc1` [Compound 46], the MIC in assay [4] came to 0.125 µg/mL (≈ 0.147 µM); in assay [5] it was 0.06 µg/mL (≈ 0.0704 µM).

`CC(C)Oc1cc(C(=O)Nc2ccc(C(=O)O)cc2)ccc1NC(=O)c1ccc(NC(=O)[C@H](CC(N)=O)NC(=O)c2ccc(NC(=O)c3ccc([N+](=O)[O-])cc3)cc2)cc1` [Compound 52]: the MIC in assay [2] was above 64 µg/mL; in assay [1], above 64 µg/mL; in assay [6], 0.06 µg/mL (≈ 0.0735 µM); in assay [7], 1 µg/mL (≈ 1.23 µM); in assay [8], above 64 µg/mL.

In the case of `CC(C)COc1c(NC(=O)c2ccc(NC(=O)[C@H](CC(N)=O)NC(=O)c3ccc(NC(=O)c4ccc([N+](=O)[O-])cc4)cc3)cc2)ccc(C(=O)Nc2ccc(C(=O)O)cc2)c1O` [Compound 53], the MIC in assay [2] is 1 µg/mL (≈ 1.18 µM); in assay [1], above 64 µg/mL; in assay [6], 2 µg/mL (≈ 2.36 µM); in assay [7], above 64 µg/mL; in assay [8] it was above 64 µg/mL.

`CC(C)Oc1c(NC(=O)c2ccc(NC(=O)[C@H](CC(N)=O)NC(=O)c3ccc(NC(=O)c4ccc(C#N)cc4)cc3)cc2)ccc(C(=O)O)c1O` [Compound 67]: the “fold decrease of gyrase inhibition” value in assay [3] (compared to 22) is “more than 100 fold”.

In the case of `CC(C)Oc1c(NC(=O)c2ccc(NC(=O)c3ccc(NC(=O)[C@H](CC(N)=O)NC(=O)c4ccc(NC(=O)c5ccc([N+](=O)[O-])cc5)cc4)cc3)c(OC(C)C)c2O)ccc(C(=O)O)c1O` [Compound 78], the MIC was 0.05 µg/mL (≈ 0.0552 µM) in assay [2]; 0.5 µg/mL (≈ 0.552 µM) in assay [1]; 0.125 µg/mL (≈ 0.138 µM) in assay [6]; 1 µg/mL (≈ 1.1 µM) in assay [7]; above 64 µg/mL in assay [8]. This molecule also gave an IC50 in assay [3] of 200 nM.

Regarding `CC(C)Oc1c(NC(=O)c2ccc(NC(=O)c3ccc(NC(=O)[C@H](CC(N)=O)NC(=O)c4ccc(NC(=O)c5ccc(C#N)cc5)cc4)cc3)c(OC(C)C)c2O)ccc(C(=O)O)c1O` [Compound 79], the MIC in assay [2] is at most 0.03 µg/mL; in assay [1], 0.25 µg/mL (≈ 0.282 µM); in assay [6] it was at most 0.03 µg/mL; in assay [7], 1 µg/mL (≈ 1.13 µM); in assay [8] it was 2 µg/mL (≈ 2.26 µM). The same molecule returned an IC50 in assay [3] of 600 nM.

On to `C/C(=C\c1ccc(C#N)cc1)C(=O)Nc1ccc(C(=O)N[C@@H](CC(N)=O)C(=O)Nc2ccc(C(=O)Nc3ccc(C(=O)Nc4ccc(C(=O)O)c(O)c4OC(C)C)c(O)c3OC(C)C)cc2)cc1` [Compound 82], for which the minimal inhibitory concentration (MIC) in assay [2] is 0.06 µg/mL (≈ 0.0648 µM); in assay [1], 0.125 µg/mL (≈ 0.135 µM); in assay [6] it was at most 0.03 µg/mL; in assay [7], 0.25 µg/mL (≈ 0.27 µM); in assay [8], 1 µg/mL (≈ 1.08 µM). Moreover, the IC50 in assay [3] is 200 nM.

Consider `COC(=O)c1ccc(NC(=O)c2ccc(NC(=O)c3ccc(NC(=O)[C@H](CC(N)=O)NC(=O)c4ccc(NC(=O)c5ccc([N+](=O)[O-])cc5)cc4)cc3)c(OC(C)C)c2)cc1` [Compound 129], for which the minimal inhibitory concentration (MIC) in assay [2], in assay [1], in assay [6], in assay [7] and in assay [8] was above 64 µg/mL in each case.
